The subject of data set [1] is Rattus norvegicus. In words: Immunomodulatory activity in Freund's complete adjuvant induced Lewis rat model of arthritis assessed as increase in IL-10 level in serum at 20 mg/kg, po administered every 24 to 48 hrs for 28 days post immunization starting from day 8 post immunization by ELISA. The data set is classed as functional, organism-based. As to conditions: time 21.0 day. In general terms: In an ELISA, binding on a coated surface is turned into a signal by an enzyme label.

Data set [2] has as its system Rattus norvegicus. In words: Immunomodulatory activity in Freund's complete adjuvant induced Lewis rat model of arthritis assessed as decrease in anti-IL-17 antibody expression in knee joint slices at 20 mg/kg, po administered every 24 to 48 hrs for 28 days post immunization starting from day 8 post immunization by immunohistochemistry analysis. As to conditions: time 21.0 day. The data set is classed as functional, organism-based.

A short description of data set [3]: Hepatotoxicity in male Wistar rat assessed as effect on glutamic pyruvic transaminase level at 20 mg/kg, po administered for 3 days. As to conditions: in vivo, 72 h, time 3 day. Format: toxicity, organism-based.
Data set [4] has as its target T1, Prostaglandin G/H synthase 2 (Mus musculus) (UniProt Q05769).
T1 sequence (whole entry): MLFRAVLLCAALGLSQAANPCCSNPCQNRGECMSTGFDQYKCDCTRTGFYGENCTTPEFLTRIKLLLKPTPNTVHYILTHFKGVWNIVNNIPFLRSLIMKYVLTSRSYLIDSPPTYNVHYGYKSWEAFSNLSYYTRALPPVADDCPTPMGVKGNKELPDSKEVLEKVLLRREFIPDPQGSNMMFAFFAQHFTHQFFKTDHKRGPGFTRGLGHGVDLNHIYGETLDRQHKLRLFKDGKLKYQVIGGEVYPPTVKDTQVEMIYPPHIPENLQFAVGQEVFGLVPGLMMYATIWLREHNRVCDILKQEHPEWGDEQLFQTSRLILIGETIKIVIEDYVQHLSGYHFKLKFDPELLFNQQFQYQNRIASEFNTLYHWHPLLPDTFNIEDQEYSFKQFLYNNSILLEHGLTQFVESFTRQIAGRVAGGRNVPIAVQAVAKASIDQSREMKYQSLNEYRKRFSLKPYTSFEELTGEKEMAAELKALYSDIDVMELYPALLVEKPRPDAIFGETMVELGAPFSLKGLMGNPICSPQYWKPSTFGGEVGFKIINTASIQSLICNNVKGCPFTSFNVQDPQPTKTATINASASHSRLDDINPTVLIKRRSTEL
The experiment in a line: Binding affinity to COX-2 in LPS-induced mouse RAW264.7 cells assessed as thermal stability at 30 uM pretreated with LPS for 24 hrs followed by compound addition and measured after 2 hrs by CETSA. The data set is classed as cell-based.

Data set [5] can be described thus: Toxicity in male Wistar rat assessed as gastrointestinal damage by measuring level-2 ulcers with 1 to 3 mm area at 50 mg/kg administered by gavage and measured after 6 hrs. Format: organism-based. Particulars: in vivo, po.
The test system of data set [6] is Rattus norvegicus. In words: Antiarthritic activity in Freund's complete adjuvant induced Lewis rat model of arthritis assessed as reduction in IL-17 protein expression at 20 mg/kg, po administered every 24 to 48 hrs for 28 days post immunization starting from day 8 post immunization by Western blot analysis. Format: functional, organism-based. Particulars: time 21.0 day. On the technique in general: A western blot detects proteins with antibodies after separation by electrophoresis.

Data set [7] relates to Rattus norvegicus. In words: Analgesic activity in Freund's complete adjuvant induced Lewis rat model of arthritis assessed as increase in mechanical paw withdrawal threshold at 20 mg/kg, po administered every 24 to 48 hrs for 28 days post immunization starting from day 8 post immunization. Format: functional, organism-based. Particulars: time 21.0 day.
Data set [8] relates to Rattus norvegicus. The experiment in a line: Antiarthritic activity in Freund's complete adjuvant induced Lewis rat model of arthritis assessed as reduction in TNFalpha level in serum at 20 mg/kg, po administered every 24 to 48 hrs for 28 days post immunization starting from day 8 post immunization by ELISA. Format: functional, organism-based. As to conditions: time 21.0 day.

Data set [9] has as its system Rattus norvegicus. In words: Antiarthritic activity in Freund's complete adjuvant induced Lewis rat model of arthritis assessed as reduction in arthritis score at 20 mg/kg, po administered every 24 to 48 hrs for 28 days post immunization starting from day 8 post immunization. Format: functional, organism-based. Particulars: time 21.0 day.
The test system of data set [10] is RAW264.7. In words: Antiinflammatory activity against LPS-induced mouse RAW264.7 cells assessed as inhibition of COX-2 protein expression pretreated for 1 hr followed by LPS stimulation and measured after 24 hrs by Western blot analysis. Format: functional, cell-based. Particulars: dose 2.5-10 µM, time 25.0 hrs.
Data set [11] in a line: Hepatotoxicity in male Wistar rat assessed as effect on glutamic oxalacetic transaminase level at 20 mg/kg, po administered for 3 days. The data set is classed as toxicity, organism-based. Particulars: in vivo, 72 h, time 3 day.
For data set [12], the system named is Rattus norvegicus. The experiment in a line: Antiarthritic activity in Freund's complete adjuvant induced Lewis rat model of arthritis assessed as reduction in PGE2 level in serum at 20 mg/kg, po administered every 24 to 48 hrs for 28 days post immunization starting from day 8 post immunization by ELISA. The data set is classed as functional, organism-based. Particulars: time 21.0 day.

Data set [13] deals with Rattus norvegicus. The experiment in a line: Antiarthritic activity in Freund's complete adjuvant induced Lewis rat model of arthritis assessed as reduction in RORgammat protein expression at 20 mg/kg, po administered every 24 to 48 hrs for 28 days post immunization starting from day 8 post immunization by Western blot analysis. The data set is classed as functional, organism-based. As to conditions: time 21.0 day.

The nature of data set [14]: Toxicity in Lewis rat model of Freund's complete adjuvant induced arthritis assessed as effect on growth by measuring reduction in body weight at 20 mg/kg, po administered every 24 to 48 hrs for 28 days post immunization starting from day 8 post immunization. Format: organism-based. Particulars: in vivo, 504 h, time 21 day.
Data set [15] relates to RAW264.7. The experiment in a line: Antiinflammatory activity in LPS-induced mouse RAW264.7 cells assessed as inhibition of PGE2 production at 10 uM pretreated for 1 hr followed by LPS stimulation and measured after 24 to 48 hrs by ELISA. Format: functional, cell-based. Particulars: time 25-49 hrs.
The test system of data set [16] is RAW264.7. In words: Antiinflammatory activity in LPS-induced mouse RAW264.7 cells assessed as inhibition of NO production pretreated for 1 hr followed by LPS stimulation and measured after 24 hrs by griess reagent based assay. The data set is classed as functional, cell-based.
A short description of data set [17]: Toxicity in male Wistar rat assessed as gastrointestinal damage by measuring number of ulcers at 100 mg/kg administered by gavage and measured after 6 hrs (reference value: 0). Format: organism-based. Particulars: in vivo, po.
Data set [18] has as its system Rattus norvegicus. In words: Immunomodulatory activity in Freund's complete adjuvant induced Lewis rat model of arthritis assessed as increase in anti-IL-10 antibody expression in knee joint slices at 20 mg/kg, po administered every 24 to 48 hrs for 28 days post immunization starting from day 8 post immunization by immunohistochemistry analysis. The data set is classed as functional, organism-based. Particulars: time 21.0 day.

The nature of data set [19]: Toxicity in male Wistar rat assessed as gastrointestinal damage by measuring level-3 ulcers with >3 mm area at 100 mg/kg administered by gavage and measured after 6 hrs. Format: organism-based. Particulars: in vivo, po.
The test system of data set [20] is Rattus norvegicus. The experiment in a line: Immunomodulatory activity in Freund's complete adjuvant induced Lewis rat model of arthritis assessed as increase in CD4positive CD25positive Treg cells in spleen at 20 mg/kg, po administered every 24 hrs for 28 days post immunization starting from day 8 post immunization by flow cytometry analysis. Format: functional, organism-based. As to conditions: time 21.0 day. Background: Flow cytometry measures light scatter and fluorescence of single cells or particles in a stream.

The subject of data set [21] is RAW264.7. The experiment in a line: Cytotoxicity against LPS-induced mouse RAW264.7 cells assessed as reduction in cell viability at 30 uM pretreated for 1 hr followed by LPS addition and measured after 24 hrs by MTT assay. Format: toxicity, cell-based. Particulars: raw264.7, 25 h.
Data set [22] has as its system RAW264.7. In words: Antiinflammatory activity in LPS-induced mouse RAW264.7 cells assessed as inhibition of NO production at 10 uM pretreated for 1 hr followed by LPS stimulation and measured over 48 hrs by griess reagent based assay. The data set is classed as functional, cell-based. As to conditions: time > 49.0 hrs.
Data set [23] relates to Rattus norvegicus. The experiment in a line: Antiarthritic activity in Freund's complete adjuvant induced Lewis rat model of arthritis assessed as reduction in joint tissue damage by measuring reduction in inflammatory cell infiltration at 20 mg/kg, po administered every 24 hrs for 28 days post immunization starting from day 8 post immunization by H and E staining based analysis. The data set is classed as functional, organism-based. Particulars: time 21.0 day.

The structures appear in SMILES notation. Active and inactive are the calls of the source.

A word on the IC50: it is the concentration that gives 50% inhibition.

With `CCCCC/C=C\C/C=C\C/C=C\C/C=C\CC/C=C(/OC(=O)C(C)c1ccc(C(=O)c2ccccc2)cc1)C(F)(F)F` (stereo not drawn), the result in data set [1], in data set [2], in data set [4], in data set [6], in data set [7] and in data set [8] was Active. Besides, the result in data set [9], in data set [12], in data set [13], in [15], in data set [18] and in data set [20] was Active. The outcome in data set [22] and in [23] was Active. The Activity entry is “Non-Toxic” in [3]; 0% in data set [5]; “Dose-Dependent Effect” in data set [10]; “Non-Toxic” in [11]; “Non-Toxic” in [14]; 7 in data set [17]. Also, the Activity in [19] is given as 0%; in [21], “Non-Toxic”. Moreover, the IC50 in [16] is 3.85 µM.

The values above are taken from ChEMBL document CHEMBL5543086, “Discovery of novel NSAID hybrids as cPLA2/COX-2 dual inhibitors alleviating rheumatoid arthritis via inhibiting p38 MAPK pathway” (Eur J Med Chem, 2024).
